Reference: PubChem BioAssay (NCI)
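1) Cells in 96-well plates. 2) Compound, 48 h, 5 concentrations. 3) Linear interpolation between surrounding doses. 4) Unreached endpoint = highest concentration. GI50 = concentration required for 50% inhibition of growth. TGI: total growth inhibition.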

How the values were obtained:
Test in all cases: NCI tumour cell line growth inhibition, 48 h
OVCAR-8 ovarian = test system: OVCAR-8 ovarian
HCT-116 colon = test system: HCT-116 colon
OVCAR-5 ovarian = test system: OVCAR-5 ovarian
HL-60(TB) leukemia = test system: HL-60(TB) leukemia
SNB-19 CNS = test system: SNB-19 CNS
HCC-2998 colon = test system: HCC-2998 colon
NCI-H522 lung = test system: NCI-H522 lung
DU-145 prostate = test system: DU-145 prostate
A498 renal = test system: A498 renal
TK-10 renal = test system: TK-10 renal
COLO 205 colon = test system: COLO 205 colon
HOP-62 NSCLC = test system: HOP-62 NSCLC
CAKI-1 renal = test system: CAKI-1 renal
MOLT-4 leukemia = test system: MOLT-4 leukemia
IGROV1 ovarian = test system: IGROV1 ovarian
EKVX NSCLC = test system: EKVX NSCLC
A549 NSCLC = test system: A549 NSCLC
SK-MEL-2 melanoma = test system: SK-MEL-2 melanoma
HCT-15 colon = test system: HCT-15 colon
RXF 393 renal = test system: RXF 393 renal
HT29 colon = test system: HT29 colon
KM12 colon = test system: KM12 colon
PC-3 prostate = test system: PC-3 prostate
UACC-62 melanoma = test system: UACC-62 melanoma
T-47D breast = test system: T-47D breast
MCF7 breast = test system: MCF7 breast
NCI-H226 lung = test system: NCI-H226 lung
SF-268 CNS = test system: SF-268 CNS
BT-549 breast = test system: BT-549 breast
HS 578T breast = test system: HS 578T breast
NCI-H23 lung = test system: NCI-H23 lung
SK-OV-3 ovarian = test system: SK-OV-3 ovarian
K-562 leukemia = test system: K-562 leukemia
SK-MEL-28 melanoma = test system: SK-MEL-28 melanoma
NCI-H460 lung = test system: NCI-H460 lung
CCRF-CEM leukemia = test system: CCRF-CEM leukemia
ACHN renal = test system: ACHN renal
SF-539 CNS = test system: SF-539 CNS
UO-31 renal = test system: UO-31 renal
MALME-3M melanoma = test system: MALME-3M melanoma
SN12C renal = test system: SN12C renal
HOP-92 NSCLC = test system: HOP-92 NSCLC
OVCAR-4 ovarian = test system: OVCAR-4 ovarian
LOX IMVI melanoma = test system: LOX IMVI melanoma
MDA-MB-435 = test system: MDA-MB-435
SK-MEL-5 melanoma = test system: SK-MEL-5 melanoma
M14 melanoma = test system: M14 melanoma
786-0 renal = test system: 786-0 renal
U251 CNS = test system: U251 CNS
RPMI-8226 leukemia = test system: RPMI-8226 leukemia
UACC-257 melanoma = test system: UACC-257 melanoma
SF-295 CNS = test system: SF-295 CNS
SW-620 colon = test system: SW-620 colon
NCI/ADR-RES ovarian = test system: NCI/ADR-RES ovarian
MDA-MB-231 breast = test system: MDA-MB-231 breast
SNB-75 CNS = test system: SNB-75 CNS

With CC(C)(C)c1cc(NC(=O)Nc2ccc(-c3cn4c5c(sc4n3)CCc3c[nH]cc3-5)cc2)no1 the GI50 (OVCAR-8 ovarian) was 2480 nM, the TGI (OVCAR-8 ovarian) was greater than 50000 nM and the GI50 (HCT-116 colon) was 1700 nM. For the same molecule, the TGI (HCT-116 colon) was 12500 nM, the GI50 (OVCAR-5 ovarian) was 2960 nM and the TGI (OVCAR-5 ovarian) was greater than 50000 nM. For the same molecule, the GI50 (HL-60(TB) leukemia) was 1510 nM, the TGI (HL-60(TB) leukemia) was greater than 50000 nM and the GI50 (SNB-19 CNS) was 1580 nM. The TGI (SNB-19 CNS) was greater than 50000 nM, the GI50 (HCC-2998 colon) was 1680 nM and the TGI (HCC-2998 colon) was 7490 nM. The GI50 (NCI-H522 lung) was 1690 nM, the TGI (NCI-H522 lung) was 6700 nM and the GI50 (DU-145 prostate) was 2310 nM. For the same molecule, the TGI (DU-145 prostate) was greater than 50000 nM, the GI50 (A498 renal) was 1040 nM and the TGI (A498 renal) was 2620 nM. For the same molecule, the GI50 (TK-10 renal) was 3410 nM, the TGI (TK-10 renal) was greater than 50000 nM and the GI50 (COLO 205 colon) was 1000 nM. The TGI (COLO 205 colon) was 2230 nM, the GI50 (HOP-62 NSCLC) was 1150 nM and the TGI (HOP-62 NSCLC) was 2740 nM. It also gave a GI50 (CAKI-1 renal) of 1490 nM, a TGI (CAKI-1 renal) greater than 50000 nM and a GI50 (MOLT-4 leukemia) of 1260 nM. It also gave a TGI (MOLT-4 leukemia) greater than 50000 nM, a GI50 (IGROV1 ovarian) of 2360 nM and a TGI (IGROV1 ovarian) greater than 50000 nM. For the same molecule, the GI50 (EKVX NSCLC) was 2050 nM, the TGI (EKVX NSCLC) was greater than 50000 nM and the GI50 (A549 NSCLC) was 2020 nM. The TGI (A549 NSCLC) was greater than 50000 nM, the GI50 (SK-MEL-2 melanoma) was 1240 nM and the TGI (SK-MEL-2 melanoma) was 3150 nM. The GI50 (HCT-15 colon) was 1190 nM, the TGI (HCT-15 colon) was 4280 nM and the GI50 (RXF 393 renal) was 333 nM. It also gave a TGI (RXF 393 renal) of 1800 nM, a GI50 (HT29 colon) of 949 nM and a TGI (HT29 colon) of 1920 nM. The GI50 (KM12 colon) was 1550 nM, the TGI (KM12 colon) was 6100 nM and the GI50 (PC-3 prostate) was 1540 nM. It also gave a TGI (PC-3 prostate) greater than 50000 nM, a GI50 (UACC-62 melanoma) of 1640 nM and a TGI (UACC-62 melanoma) of 5880 nM. The GI50 (T-47D breast) was 1190 nM, the TGI (T-47D breast) was 3750 nM and the GI50 (MCF7 breast) was 1080 nM. For the same molecule, the TGI (MCF7 breast) was 3120 nM, the GI50 (NCI-H226 lung) was 2280 nM and the TGI (NCI-H226 lung) was greater than 50000 nM. It also gave a GI50 (SF-268 CNS) of 1920 nM, a TGI (SF-268 CNS) of 16500 nM and a GI50 (BT-549 breast) of 1310 nM. The TGI (BT-549 breast) was 4220 nM, the GI50 (HS 578T breast) was 950 nM and the TGI (HS 578T breast) was 2940 nM. It also gave a GI50 (NCI-H23 lung) of 1420 nM, a TGI (NCI-H23 lung) of 4870 nM and a GI50 (SK-OV-3 ovarian) of 2120 nM. The TGI (SK-OV-3 ovarian) was 31300 nM, the GI50 (K-562 leukemia) was 1240 nM and the TGI (K-562 leukemia) was greater than 50000 nM. The GI50 (SK-MEL-28 melanoma) was 1540 nM, the TGI (SK-MEL-28 melanoma) was 9500 nM and the GI50 (NCI-H460 lung) was 1570 nM. It also gave a TGI (NCI-H460 lung) of 5340 nM, a GI50 (CCRF-CEM leukemia) of 1790 nM and a TGI (CCRF-CEM leukemia) greater than 50000 nM. It also gave a GI50 (ACHN renal) of 1980 nM, a TGI (ACHN renal) greater than 50000 nM and a GI50 (SF-539 CNS) of 875 nM. For the same molecule, the TGI (SF-539 CNS) was 4170 nM, the GI50 (UO-31 renal) was 1330 nM and the TGI (UO-31 renal) was 3900 nM. It also gave a GI50 (MALME-3M melanoma) of 1440 nM, a TGI (MALME-3M melanoma) of 4060 nM and a GI50 (SN12C renal) of 3000 nM. It also gave a TGI (SN12C renal) greater than 50000 nM, a GI50 (HOP-92 NSCLC) of 1060 nM and a TGI (HOP-92 NSCLC) of 3670 nM. The GI50 (OVCAR-4 ovarian) was 2620 nM, the TGI (OVCAR-4 ovarian) was greater than 50000 nM and the GI50 (LOX IMVI melanoma) was 1300 nM. For the same molecule, the TGI (LOX IMVI melanoma) was 3230 nM, the GI50 (MDA-MB-435) was 1970 nM and the TGI (MDA-MB-435) was greater than 50000 nM. The GI50 (SK-MEL-5 melanoma) was 1020 nM, the TGI (SK-MEL-5 melanoma) was 2110 nM and the GI50 (M14 melanoma) was 1450 nM. For the same molecule, the TGI (M14 melanoma) was 4900 nM, the GI50 (786-0 renal) was 754 nM and the TGI (786-0 renal) was 2100 nM. The GI50 (U251 CNS) was 738 nM, the TGI (U251 CNS) was 3780 nM and the GI50 (RPMI-8226 leukemia) was 1080 nM. It also gave a TGI (RPMI-8226 leukemia) of 4140 nM, a GI50 (UACC-257 melanoma) of 2310 nM and a TGI (UACC-257 melanoma) of 13900 nM. For the same molecule, the GI50 (SF-295 CNS) was 738 nM, the TGI (SF-295 CNS) was 1740 nM and the GI50 (SW-620 colon) was 2130 nM. The TGI (SW-620 colon) was 15000 nM, the GI50 (NCI/ADR-RES ovarian) was 1890 nM and the TGI (NCI/ADR-RES ovarian) was greater than 50000 nM. It also gave a GI50 (MDA-MB-231 breast) of 2000 nM, a TGI (MDA-MB-231 breast) of 18100 nM and a GI50 (SNB-75 CNS) of 990 nM. It also gave a TGI (SNB-75 CNS) of 4010 nM.
